Source: PMC5471453, “Dual-targeted peptide-conjugated multifunctional fluorescent probe with AIEgen for efficient nucleus-specific imaging and long-term tracing of cancer cells” (Chemical Science, 2017)

Tests used:
[1] = tested on: A375 cells co-cultured with MDA-MB-231 cells or HLF cells; assay: Leak-free marking: stained A375 cells co-cultured with unstained cells; format: cell-based, human; conditions: co-cultured with MDA-MB-231 or HLF cells for 24 h; CLSM
Source text: The cytocompatible nature of TCNTP and its precisely targeted interaction with organelles may account for the leak-free marking inside cells. A375 cells stained by TCNTP were co-cultured with MDA-MB-231 cells or human lung fibroblast (HLF) cells (normal human cell line), in order to evaluate whether TCNTP could be utilized to discriminate between different cell lines. TCNTP could easily stain the MDA-MB-231 cells and HLF cells in monoculture experiment (Fig. S22 ^†).
The excellent intracellular preservation of TCNTP may be used to develop novel fluorescent probes for differentiating specific cancerous cells from normal cells and for tracing diffusion, necrosis, shrinkage and suppression processes of tumor cells.
Fig. 6 The experimental scheme of TCNTP-stained (A) or Hoechst 33258-stained (F) A375 cells co-cultured with unstained cells. The CLSM imaging of co-cultivated TCNTP-stained (B) A375 cells and unstained MDA-MB-231 cells (the blue ellipses) or (D) TCNTP-stained A375 cells and unstained HLF cells (the blue ellipses). The average fluorescence intensity of TCNTP in four partial enlarged views (C and E). […] The average fluorescence intensity of Hoechst 33258 in four partial enlarged views (H and J). The blue fluorescence channel: excitation wavelength, 405 nm; emission collected, 425–485 nm. The yellow fluorescence channel: excitation wavelength, 405 nm; emission collected, 495–575 nm. […]

[2] = tested on: MDA-MB-231 cells, HT-1080 cells, A375 cells and HLF cells; assay: MTT assay of cell viability; format: cell-based; conditions: 1 μM, 5 μM and 10 μM for 48 h in triplicate, 96-well plate; absorbance 570 nm; all the cell lines
Procedure: Japan). All fluorescence images were analysed with FV10-ASW V4.0 Image software (Olympus). Three-dimensional map of cells were used 3D rendering by Imaris (Andor-Bitplane, Zurich). Co-localization analysis were used Image-Pro Plus 6.0.
The cytotoxic potential of PyTPE, Hoechst 33258 and TCNTP was assessed using the MTT assay. MDA-MB-231 cells, HT-1080 cells, A375cells and HLF cells were respectively treated with PyTPE (1 μM, 5 μM and 10 μM), Hoechst 33258 (1 μM, 5 μM and 10 μM) and TCNTP (1 μM, 5 μM and 10 μM) for 48 h in triplicate in a 96-well plate. The absorbance of MTT at 570 nm was recorded by the Infinite M200 PRO […]
Fig. S21 Metabolic viability of (A) MDA-MB-231 cells, (B) HT-1080 cells, (C) A375 cells and (D) HLF cells after incubation with PyTPE and TCNTP at concentrations of 1 μM, 5 µM and 10 µM for 48 h. Black bars represent PyTPE, red bars represent TCNTP and blue bars […]
Fig. S22 Fluorescence images of HLF cells treated with 3 µM PyTPE (A) and TCNTP (B) with Hoechst 33258 of each formulation for 12h in cell culturing condition. The white scale […]

[3] = tested on: A375 cells; assay: Long-term tracing of cancer cells over culture cycles (CLSM); format: cell-based, human; conditions: 3 μM for 4 h, after the fifth culture cycle (5 d)
Procedure: Due to reverse diffusion, most conventional dyes cannot be retained in living cells for more than a few hours.[35] Although some cell-tracker fluorescence dyes, for example Hoechst stains, can remain in viable cells for a few generations, they bind to DNA and thus interfere with DNA replication during cell division which can be cytotoxic. […] A375 cells were incubated separately with each of 3 μM TCNTP and Hoechst 33258. After 4 h incubation, the probe (or dye) was discarded and the labelled cells continued to be cultured overnight. Then the labelled cells were digested and divided into two dishes for another overnight incubation, referred to as one culture cycle. […] While the yellow fluorescence of TCNTP mainly distributed to cytoplasm for the third culture cycle (3 d) due to degradation of peptides and redistribution of the probe during cell division. […]
Fig. 5 The CLSM imaging of A375 cells treated with 3 μM TCNTP (A) and 3 μM Hoechst 33258 (B) for 4 h with further incubation for 1 d, 3 d and 5 d in cell culturing conditions. (C) The average fluorescence intensity of TCNTP and Hoechst 33258 in 60× microscopic field (the insets). […]
The cells stained by TCNTP were still visible even after the tenth culture cycle (Fig. S20 ^†), whereas very weak fluorescence signals were detected in the Hoechst 33258-stained cells after the third culture cycle (Fig. 5B). […]

Q: How did the “leakage of dye from stained A375 cells into unstained cells” value [1] turn out when `CN1CCN(c2ccc3[nH]c(-c4ccc5[nH]c(-c6ccc(O)cc6)nc5c4)nc3c2)CC1` [Hoechst 33258] was run?
A: The value was “fast leakage”.

Q: And the “toxicity by MTT assay of cell viability” value [2]?
A: The value was “high toxicity”.

Q: What about the “Active Cells Remaining (number of remaining stained living cells)” value ([3]; 10× microscopic field) of the same molecule?
A: The value was 2%.

Q: And the “Signal Remaining (fluorescence signal remaining)” value ([3]; 60× microscopic field)?
A: Its value is 6%.
